# Test system: Genes belonging to other category
# Assay: DNA chip mRNA expression in yeast, genes belonging to other category (Table 9)
# Assay type: cell-based, Saccharomyces cerevisiae S288C
# In short: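 Expression change after 2 h toxicant exposure (growth-inhibiting, sub-lethal) of log-phase S. cerevisiae S288C at 25° C. Oligo-dT-purified mRNA was labeled with Cy3-dUTP or Cy5-dUTP and hybridized >12 h at 65° C. to a genome-wide chip; ratio of scanned fluorescence to control.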
smiles,measurement,setting,value
"S=C([S-])NCCNC(=S)[S-].[Zn+2] [(11), zinc N,N′-ethylenebis(dithiocarbamate)]",The level of expressed mRNA in the presence of chemical substance/The level of expressed mRNA in the absence of chemical substance,yeast gene YAR010C,0.9
same,The level of expressed mRNA in the presence of chemical substance/The level of expressed mRNA in the absence of chemical substance,yeast gene YBL005W-A,0.8
same,The level of expressed mRNA in the presence of chemical substance/The level of expressed mRNA in the absence of chemical substance,yeast gene YBL041W,1.6
same,The level of expressed mRNA in the presence of chemical substance/The level of expressed mRNA in the absence of chemical substance,yeast gene YBL043W,1.5
same,The level of expressed mRNA in the presence of chemical substance/The level of expressed mRNA in the absence of chemical substance,yeast gene YBL078C,4.6
same,The level of expressed mRNA in the presence of chemical substance/The level of expressed mRNA in the absence of chemical substance,yeast gene YBL101C,0.8
same,The level of expressed mRNA in the presence of chemical substance/The level of expressed mRNA in the absence of chemical substance,yeast gene YBL101W-A,1.2
same,The level of expressed mRNA in the presence of chemical substance/The level of expressed mRNA in the absence of chemical substance,yeast gene YBL102W,1.2
same,The level of expressed mRNA in the presence of chemical substance/The level of expressed mRNA in the absence of chemical substance,yeast gene YBR009C,0.8
same,The level of expressed mRNA in the presence of chemical substance/The level of expressed mRNA in the absence of chemical substance,yeast gene YBR031W,0.9
same,The level of expressed mRNA in the presence of chemical substance/The level of expressed mRNA in the absence of chemical substance,yeast gene YBR128C,1.3
same,The level of expressed mRNA in the presence of chemical substance/The level of expressed mRNA in the absence of chemical substance,yeast gene YBR177C,0.6
same,The level of expressed mRNA in the presence of chemical substance/The level of expressed mRNA in the absence of chemical substance,yeast gene YBR214W,3.2
same,The level of expressed mRNA in the presence of chemical substance/The level of expressed mRNA in the absence of chemical substance,yeast gene YBR239C,0.7
same,The level of expressed mRNA in the presence of chemical substance/The level of expressed mRNA in the absence of chemical substance,yeast gene YBR290W,1.2
same,The level of expressed mRNA in the presence of chemical substance/The level of expressed mRNA in the absence of chemical substance,yeast gene YCL020W,1.3
same,The level of expressed mRNA in the presence of chemical substance/The level of expressed mRNA in the absence of chemical substance,yeast gene YCL027W,0.9
same,The level of expressed mRNA in the presence of chemical substance/The level of expressed mRNA in the absence of chemical substance,yeast gene YCL067C,1.6
same,The level of expressed mRNA in the presence of chemical substance/The level of expressed mRNA in the absence of chemical substance,yeast gene YCR004C,1.9
same,The level of expressed mRNA in the presence of chemical substance/The level of expressed mRNA in the absence of chemical substance,yeast gene YCR039C,1.2
same,The level of expressed mRNA in the presence of chemical substance/The level of expressed mRNA in the absence of chemical substance,yeast gene YCR062W,1.2
same,The level of expressed mRNA in the presence of chemical substance/The level of expressed mRNA in the absence of chemical substance,yeast gene YCR067C,1.2
same,The level of expressed mRNA in the presence of chemical substance/The level of expressed mRNA in the absence of chemical substance,yeast gene YCR069W,1.3
same,The level of expressed mRNA in the presence of chemical substance/The level of expressed mRNA in the absence of chemical substance,yeast gene YCR071C,1.1
same,The level of expressed mRNA in the presence of chemical substance/The level of expressed mRNA in the absence of chemical substance,yeast gene YCR088W,1.0
same,The level of expressed mRNA in the presence of chemical substance/The level of expressed mRNA in the absence of chemical substance,yeast gene YCR096C,1.4
same,The level of expressed mRNA in the presence of chemical substance/The level of expressed mRNA in the absence of chemical substance,yeast gene YCR106W,1.2
same,The level of expressed mRNA in the presence of chemical substance/The level of expressed mRNA in the absence of chemical substance,yeast gene YDL008W,0.9
same,The level of expressed mRNA in the presence of chemical substance/The level of expressed mRNA in the absence of chemical substance,yeast gene YDL061C,1.4
same,The level of expressed mRNA in the presence of chemical substance/The level of expressed mRNA in the absence of chemical substance,yeast gene YDL143W,1.3
same,The level of expressed mRNA in the presence of chemical substance/The level of expressed mRNA in the absence of chemical substance,yeast gene YDL238C,1.1
same,The level of expressed mRNA in the presence of chemical substance/The level of expressed mRNA in the absence of chemical substance,yeast gene YDR055W,2.2
same,The level of expressed mRNA in the presence of chemical substance/The level of expressed mRNA in the absence of chemical substance,yeast gene YDR080W,1.2
same,The level of expressed mRNA in the presence of chemical substance/The level of expressed mRNA in the absence of chemical substance,yeast gene YDR084C,0.7
same,The level of expressed mRNA in the presence of chemical substance/The level of expressed mRNA in the absence of chemical substance,yeast gene YDR085C,1.7
same,The level of expressed mRNA in the presence of chemical substance/The level of expressed mRNA in the absence of chemical substance,yeast gene YDR104C,1.0
same,The level of expressed mRNA in the presence of chemical substance/The level of expressed mRNA in the absence of chemical substance,yeast gene YDR115W,1.2
same,The level of expressed mRNA in the presence of chemical substance/The level of expressed mRNA in the absence of chemical substance,yeast gene YDR181C,0.8
same,The level of expressed mRNA in the presence of chemical substance/The level of expressed mRNA in the absence of chemical substance,yeast gene YDR188W,0.9
same,The level of expressed mRNA in the presence of chemical substance/The level of expressed mRNA in the absence of chemical substance,yeast gene YDR257C,1.3
same,The level of expressed mRNA in the presence of chemical substance/The level of expressed mRNA in the absence of chemical substance,yeast gene YDR259C,1.2
same,The level of expressed mRNA in the presence of chemical substance/The level of expressed mRNA in the absence of chemical substance,yeast gene YDR264C,0.9
same,The level of expressed mRNA in the presence of chemical substance/The level of expressed mRNA in the absence of chemical substance,yeast gene YDR276C,1.4
same,The level of expressed mRNA in the presence of chemical substance/The level of expressed mRNA in the absence of chemical substance,yeast gene YDR304C,1.2
same,The level of expressed mRNA in the presence of chemical substance/The level of expressed mRNA in the absence of chemical substance,yeast gene YDR315C,1.1
same,The level of expressed mRNA in the presence of chemical substance/The level of expressed mRNA in the absence of chemical substance,yeast gene YDR358W,1.0
same,The level of expressed mRNA in the presence of chemical substance/The level of expressed mRNA in the absence of chemical substance,yeast gene YDR378C,0.8
same,The level of expressed mRNA in the presence of chemical substance/The level of expressed mRNA in the absence of chemical substance,yeast gene YDR382W,1.2
same,The level of expressed mRNA in the presence of chemical substance/The level of expressed mRNA in the absence of chemical substance,yeast gene YDR388W,1.6
same,The level of expressed mRNA in the presence of chemical substance/The level of expressed mRNA in the absence of chemical substance,yeast gene YDR407C,1.2
